Experimental data published in patent US7169792B2, “Method of treating bacterial infections using gemifloxacin or a salt thereof and a β-lactam antibiotic” (priority 2002, dated 2007).
Where two headings read alike, the source gives them in different places.

System: clinically isolated P. aeruginosa
Experiment: checkerboard titration, gemifloxacin or ciprofloxacin with ceftazidime, 27 clinical isolates (Example 4)
Assay type: cell-based, Pseudomonas aeruginosa
Conditions: for FICA: FIC of gemifloxacin; for Cgemifloxacin MIC: in combination with ceftazidime; for MIC: Pseudomonas aeruginosa, drug alone, read-out: gemifloxacin MIC
Experimental: The test organisms were clinical isolates collected in Korea. Organisms were frozen at −70 C prior to testing. Testing was done by the checkerboard method in 96-well plates using Mueller-Hinton broth. […] Ceftazidime was also dispensed alone in the first row in the first column. Test strains of P. aeruginosa were grown for 18 h in Mueller-Hinton broth, and then these overnight cultures were diluted with the same fresh medium to the density of approximately 10^7 CFU/mL. The bacterial concentrations were determined by measuring optical density or turbidity of the suspension and were verified by standard colony counts on antibiotic-free agar plates. A diluted bacterial solution was applied to 96-well plates containing serially diluted antimicrobial agents to yield 10^4 CFU per spot. Plates were incubated aerobically overnight.
Minimal inhibitory concentrations (MICs) for each separate drug were determined. For wells along the growth-no growth interface, synergy was determined by calculating the Fractional Inhibitory Concentration (FIC) index. The Fractional Inhibitory Concentration (FIC) indices were calculated using the following formula: FICindex=FICA+FICB=[A]/MICA+[B]/MICB • Wherein: • FICA(or B), is the FIC of drug A (or B) MICA (or B) is the MIC of the organism to drug A (or B) • A (or B) is concentration of drug A (or B) that is the lowest inhibitory concentration
The FIC indices were interpreted using the following criteria: • ≦0.5=Synergy • >0.5–1.0=Additive • >1.0–4.0=Indifference • >4.0=Antagonism

## CO/N=C1\CN(c2nc3c(cc2F)c(=O)c(C(=O)O)cn3C2CC2)CC1CN (racemic) [gemifloxacin, (R,S)-7-(3-aminomethyl-4-methoxyiminopyrrolidin-1-yl)-1-cyclopropyl-6-fluoro-4-oxo-1,4-dihydro-1,8-naphthyridine-3-carboxylic acid]
27 clinically isolated P. aeruginosa
  MIC range: 0.25 to 32 µg/mL
P. aeruginosa 6003
  FICA: 0.25
  Cgemifloxacin MIC: 0.25 µg/mL
  MIC: 1 µg/mL
P. aeruginosa 6021
  FICA: 0.25
  Cgemifloxacin MIC: 0.25 µg/mL
  MIC: 1 µg/mL
P. aeruginosa 6030
  FICA: 0.13
  Cgemifloxacin MIC: 0.125 µg/mL
  MIC: 1 µg/mL
P. aeruginosa 6045
  FICA: 0.25
  Cgemifloxacin MIC: 1 µg/mL
  MIC: 4 µg/mL
P. aeruginosa 6047
  FICA: 0.13
  Cgemifloxacin MIC: 1 µg/mL
  MIC: 8 µg/mL
P. aeruginosa 6113
  FICA: 0.25
  Cgemifloxacin MIC: 0.125 µg/mL
  MIC: 0.5 µg/mL
P. aeruginosa 6123
  FICA: 0.13
  Cgemifloxacin MIC: 0.125 µg/mL
  MIC: 1 µg/mL
P. aeruginosa 6173
  FICA: 0.13
  Cgemifloxacin MIC: 0.125 µg/mL
  MIC: 1 µg/mL
P. aeruginosa P032
  FICA: 0.13
  Cgemifloxacin MIC: 0.0625 µg/mL
  MIC: 0.5 µg/mL
P. aeruginosa P036
  FICA: 0.13
  Cgemifloxacin MIC: 1 µg/mL
  MIC: 8 µg/mL
P. aeruginosa P039
  FICA: 0.25
  Cgemifloxacin MIC: 0.5 µg/mL
  MIC: 2 µg/mL
